# Laboratory results as given in patent publication US10130611B2, “Use of benzo-heterocycle derivatives for preventing and treating cancer or for inhibiting cancer metastasis” (MEDICINAL BIOCONVERGENCE RESEARCH CENTER, priority 2009, dated 2018).
# Target: T1, intracellular interaction between KRS and 67LR (Homo sapiens, UniProt Q15046)
# T1 construct: endogenous in cells
# Experiment: Co-immunoprecipitation of KRS with 67LR in cells treated with KL1
# Format: cell-based
# Method: As a control, an OD level of cells treated with DMSO was measured. FIG. 32 is a photograph showing cell growth in wells containing yeast cells having indicated interaction pairs in the presence or absence of CAND-KL1. In FIG. 33, in 293 cells, through co-immunoprecipitation, the KL1-dose-dependent effect on the interaction between KRS and 67LR was tested. The cells were treated with KL1 for 3 hours, 67LR was immunoprecipitated, and co-precipitation of KRS was determined by western blotting. In FIG. 34, in the presence of KL1 in indicated levels, a laminin receptor labeled with radioisotope was mixed with GST-KRS (1 μg). GST-KRS was precipitated with glutathione-Sepharose beads, and co-precipitated laminin receptor was detected with autoradiography. In FIG. 35, in A549 cells, the effect of KL1 on the intracellular level of 67LR and 37LRP was tested with western blotting. […] GST-KRS was immobilized on a CM5 Sensor Chip, and the binding was measured by a resonance unit (RU) at indicated concentrations (indicated by different colors). […]
# From among the compounds, the inventors also examined whether the compound represented by Formula 15 (indicated by CAND-KL1, and KL1) can inhibit the intracellular interaction between KRS and 67LR. […] Then, 67LR was immunoprecipitated with its antibody, and co-immunoprecipitation of KRS was determined. […]
# T1 sequence (Q15046 2-597 limits assumed): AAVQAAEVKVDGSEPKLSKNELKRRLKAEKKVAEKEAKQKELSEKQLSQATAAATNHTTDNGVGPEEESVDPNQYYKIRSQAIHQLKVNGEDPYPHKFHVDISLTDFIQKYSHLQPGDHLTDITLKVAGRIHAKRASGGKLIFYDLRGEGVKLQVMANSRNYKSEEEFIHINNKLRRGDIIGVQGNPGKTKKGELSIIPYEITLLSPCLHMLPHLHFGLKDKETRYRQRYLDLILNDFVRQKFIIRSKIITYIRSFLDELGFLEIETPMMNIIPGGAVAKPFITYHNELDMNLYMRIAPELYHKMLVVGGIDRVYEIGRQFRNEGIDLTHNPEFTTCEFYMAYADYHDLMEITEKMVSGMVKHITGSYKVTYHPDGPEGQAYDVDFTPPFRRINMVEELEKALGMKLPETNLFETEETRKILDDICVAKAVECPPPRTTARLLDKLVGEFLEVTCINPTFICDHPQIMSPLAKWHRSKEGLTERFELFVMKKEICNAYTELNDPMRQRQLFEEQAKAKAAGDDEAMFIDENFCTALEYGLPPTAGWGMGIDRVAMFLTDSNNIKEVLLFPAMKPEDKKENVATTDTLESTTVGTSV
structure (smiles),measurement,setting,value
"CCC(C(=O)O)n1/c(=N/C(=O)c2ccc(C)cc2)sc2ccccc21 (centres unmarked) [Compound of formula 15, 2-[2-(4-Methyl-benzoylimino)-benzothiazol-3-yl]-butyric acid]",level of KRS co-precipitated with 67LR,"cells treated with KL1 at different concentrations, 3 hours, 67LR immunoprecipitated",decreased according the increase of KL1 level
same,intracellular levels of KRS and 67LR,same co-immunoprecipitation experiment (FIG. 33),not changed
